Test results: patent US9095600B2, “Prophylactic and/or therapeutic agent for cardiac infarction” (OSAKA UNIVERSITY, priority 2007, dated 2015)

Tests used:
[1] = Hemodynamic test (blood pressure and heart rate during intravenous injection); assay type: in vivo, Male SD rats; settings: rat, i.v.
Procedure: Male SD rats (nine weeks old, body weight: 270 g to 320 g, supplied by Japan SLC, Inc.) were employed. Each of the rats was anesthetized with pentobarbital sodium (30 mg/kg, intraperitoneal injection) and then fixed in the dorsal position. A tube was orally inserted into the trachea, and artificial ventilation was carried out by means of a ventilator for small animals. A catheter (INTRAMEDIC Polyethylene Tubing PE50, CLAY ADAMS) was inserted into the femoral artery and the femoral vein, and systolic blood pressure, diastolic blood pressure, and mean blood pressure were measured in the femoral artery. Heart rate was measured by means of an electrocardiograph. A drug sample was injected through the catheter indwelled in the femoral vein by means of a syringe pump (Model PHD 4400, HARVARD). Specifically, after stabilization of hemodynamics, empty liposomes (n=8), adenosine only (n=8), and adenosine-retaining liposomes (n=8) were injected transvenously, respectively.
In an empty liposome group, injection was carried out at 0.05 mL/minute for 10 minutes (one minute, five minutes, and 10 minutes after initiation of injection, blood pressure and heart rate were evaluated), and, for five minutes after completion of injection, blood pressure and heart rate were evaluated. Thereafter, evaluation was carried out in a manner similar to that described above at an injection rate of 0.1 mL/minute, 0.2 mL/minute, or 0.4 mL/minute. In an adenosine-only group or an adenosine-retaining liposome group, injection was initiated at 0.05 mL/minute (225 μg/kg/minute as reduced to adenosine), and cumulative administration was carried out through the same protocol as in the case of the empty liposome group.

[2] = test system: ischemia-reperfusion model rat; assay: Ischemia-reperfusion test (rat), myocardial infarct size; assay type: in vivo, Male SD rats; settings: 900 μg/kg/minute i.v. for 10 minutes, injection before ischemia, 72 hours after reperfusion
Procedure: Similar to the case of the hemodynamic test, male SD rats were employed. Each of the rats was anesthetized and artificially ventilated, and then thoracotomy was carried out at the thoracic sidewall. The left anterior descending coronary artery (LAD) was ligated by means of a suturing needle with suture for 30 minutes, and then blood flow was restored, to thereby prepare an ischemia-reperfusion model. A drug sample was injected through a catheter (INTRAMEDIC Polyethylene Tubing PE50, CLAY ADAMS) indwelled in the femoral vein.
In this test, an adenosine-retaining liposome group were divided into two groups: a group received adenosine-retaining liposomes before ischemia (injected for 10-minute before ischemia), and a group received adenosine-retaining liposomes before reperfusion (injected for 10-minute initiated 5 minutes before reperfusion). In the other groups, injection was carried out before ischemia (injected for 10-minute before ischemia). […]
Each of the rats was anesthetized 72 hours after reperfusion, and then thoracotomy was carried out again. […] After staining, the specimens were photographed, and an ischemic risk area (non-Evans blue-stained area) and an infarct area (non-TTC-stained area) were determined by means of Win ROOF Version 5.5 (product of Mitani Corporation). Infarct size was calculated by dividing the infarct area by the ischemic risk area.

[3] = cited from earlier work
[4] = ten minutes after initiation of adenosine injection at 225 μg/kg/minute
[5] = ten minutes after initiation of adenosine injection at 450 μg/kg/minute
[6] = ten minutes after initiation of adenosine injection at 900 μg/kg/minute
[7] = ten minutes after initiation of adenosine injection at 1,800 μg/kg/minute

Nc1ncnc2c1ncn2[C@@H]1O[C@H](CO)[C@@H](O)[C@H]1O [adenosine, Adenosine]
heart rate [1, 4]: 357±25 bpm
mean blood pressure [1, 4]: 101±12 mmHg
heart rate [1, 5]: 324±25 bpm
mean blood pressure [1, 5]: 93±14 mmHg
heart rate [1, 6]: 296±12 bpm
mean blood pressure [1, 6]: 84±11 mmHg
heart rate [1, 7]: 236±17 bpm
mean blood pressure [1, 7]: 75±11 mmHg
myocardial infarct size (infarct area / ischemic risk area) [2]: 25.2±1.9%
half life in blood [3]: < 10 s
